Structures can show the parent of a compound that is named as a salt. Each block holds one compound with its values, some of them ahead of it.
How the values were obtained:
Assay type in all cases: cell-based, human
[1] = tested on: oral epithelium epidermal cancer cell line KB; assay: MTT growth inhibition, KB; conditions: KB cells, 72 hours drug exposure
Method: (§1) The sensitivity, to irinotecan and SN-38, of the 19 cultured human tumor cell lines which had been subjected to comprehensive gene expression analysis was determined through the MTT (methylthiazol tetrazolium bromide) method. Specifically, 4×10^3 cells/well of each cell line and 80 μL/well of culture medium (10% fetal serum-added RPMI1640 medium) were added to each well of a 96-well microplate (Nunclon; Nunc, Roskilde, Denmark), and culturing was performed for 24 hours in an incubator at 37° C. under 5% CO2. Thereafter, the culture medium (10% fetal serum-added RPMI1640 medium) was renewed, and SN-38 or irinotecan was added thereto at various concentrations. Culturing was further performed for 72 hours in an incubator at 37° C. under 5% CO2. […] By means of a microplate reader (Maxline Microplate Reader, Molecular Devices, Sunnyvale, Calif.), absorbance at 570 to 650 nm was measured. An average absorbance of wells of culture medium was subtracted from the absorbance of each well of the drug-treatment group, and the obtained values of the wells were averaged. Similarly, the average absorbance of wells of culture medium was subtracted from the absorbance of each well of the control group (non-drug-treatment group), and the obtained values of the wells were averaged. […]

[2] = tested on: gastric cancer cell line MKN45; assay: MTT growth inhibition, MKN45; conditions: MKN45 cells, 72 hours drug exposure
Method: as §1

[3] = tested on: myelogenous leukemia cell line K562; assay: MTT growth inhibition, K562; conditions: K562 cells, 72 hours drug exposure
Method: as §1

[4] = tested on: colon cancer cell line HCC-48; assay: MTT growth inhibition, HCC-48; conditions: HCC-48 cells, 72 hours drug exposure
Method: as §1

[5] = tested on: esophageal cancer cell line HEC-46; assay: MTT growth inhibition, HEC-46; conditions: HEC-46 cells, 72 hours drug exposure
Method: as §1

[6] = tested on: colon cancer cell line HCC-50; assay: MTT growth inhibition, HCC-50; conditions: HCC-50 cells, 72 hours drug exposure
Method: as §1

[7] = tested on: gastric cancer cell line HSC-42; assay: MTT growth inhibition, HSC-42; conditions: HSC-42 cells, 72 hours drug exposure
Method: as §1

[8] = tested on: acquired multidrug resistant cell line K562/DOX; assay: MTT growth inhibition, K562/DOX; conditions: K562/DOX cells, 72 hours drug exposure
Method: as §1

[9] = tested on: colon cancer cell line COLO201; assay: MTT growth inhibition, COLO201; conditions: COLO201 cells, 72 hours drug exposure
Method: as §1

[10] = tested on: colon cancer cell line COLO320DM; assay: MTT growth inhibition, COLO320DM; conditions: COLO320DM cells, 72 hours drug exposure
Method: as §1

[11] = tested on: small-cell lung cancer cell line PC-6; assay: MTT growth inhibition, PC-6; conditions: PC-6 cells, 72 hours drug exposure
Method: as §1

[12] = tested on: acquired CPT-11 resistant cell line PC-6/DQ2-2; assay: MTT growth inhibition, PC-6/DQ2-2; conditions: PC-6/DQ2-2 cells, 72 hours drug exposure
Method: as §1

[13] = tested on: acquired SN-38 resistant cell line PC-6/SN2-5; assay: MTT growth inhibition, PC-6/SN2-5; conditions: PC-6/SN2-5 cells, 72 hours drug exposure
Method: as §1

[14] = tested on: lung adenocarcinoma cell line PC-9; assay: MTT growth inhibition, PC-9; conditions: PC-9 cells, 72 hours drug exposure
Method: as §1

[15] = tested on: acquired CDDP (cisplatin) resistant cell line PC-9/CDDP; assay: MTT growth inhibition, PC-9/CDDP; conditions: PC-9/CDDP cells, 72 hours drug exposure
Method: as §1

[16] = tested on: lung adenocarcinoma cell line PC-14; assay: MTT growth inhibition, PC-14; conditions: PC-14 cells, 72 hours drug exposure
Method: as §1

[17] = tested on: acquired CDDP resistant cell line PC-14/CDDP; assay: MTT growth inhibition, PC-14/CDDP; conditions: PC-14/CDDP cells, 72 hours drug exposure
Method: as §1

[18] = tested on: squamous cell lung cancer cell line LC-S; assay: MTT growth inhibition, LC-S; conditions: LC-S cells, 72 hours drug exposure
Method: as §1

[19] = tested on: lung adenocarcinoma cell line A549; assay: MTT growth inhibition, A549; conditions: A549 cells, 72 hours drug exposure
Method: as §1

[20] = Homo sapiens, read-out: 50% Growth inhibitory concentration (IC50) determined by MTT method

SMILES: CCc1c2c(nc3ccc(O)cc13)-c1cc3c(c(=O)n1C2)COC(=O)[C@]3(O)CC [SN-38, 7-ethyl-10-hydroxycamptothecin]
50% Growth inhibitory concentration (IC50) determined by MTT method [1]: 0.00526 µg/mL
50% Growth inhibitory concentration (IC50) determined by MTT method [2]: 0.0026 µg/mL
50% Growth inhibitory concentration (IC50) determined by MTT method [3]: 0.00284 µg/mL
50% Growth inhibitory concentration (IC50) determined by MTT method [4]: 0.00199 µg/mL
50% Growth inhibitory concentration (IC50) determined by MTT method [5]: 0.03482 µg/mL
50% Growth inhibitory concentration (IC50) determined by MTT method [6]: 0.02227 µg/mL
50% Growth inhibitory concentration (IC50) determined by MTT method [7]: 0.00281 µg/mL
50% Growth inhibitory concentration (IC50) determined by MTT method [8]: 0.0041 µg/mL
50% Growth inhibitory concentration (IC50) determined by MTT method [9]: 0.00284 µg/mL
50% Growth inhibitory concentration (IC50) determined by MTT method [10]: 0.00343 µg/mL
50% Growth inhibitory concentration (IC50) determined by MTT method [11]: 0.00291 µg/mL
50% Growth inhibitory concentration (IC50) determined by MTT method [12]: 0.09735 µg/mL
50% Growth inhibitory concentration (IC50) determined by MTT method [13]: 0.0244 µg/mL
50% Growth inhibitory concentration (IC50) determined by MTT method [14]: 0.00817 µg/mL
50% Growth inhibitory concentration (IC50) determined by MTT method [15]: 0.00905 µg/mL
50% Growth inhibitory concentration (IC50) determined by MTT method [16]: 0.01116 µg/mL
50% Growth inhibitory concentration (IC50) determined by MTT method [17]: 0.00626 µg/mL
50% Growth inhibitory concentration (IC50) determined by MTT method [18]: 0.13707 µg/mL
50% Growth inhibitory concentration (IC50) determined by MTT method [19]: 0.02523 µg/mL

IC50 [1, 20]: 2.23 µg/mL
IC50 ([2]; Homo sapiens, MKN-45, read-out: 50% Growth inhibitory concentration (IC50) determined by MTT method): 0.809 µg/mL
IC50 [3, 20]: 2.3 µg/mL
IC50 [4, 20]: 1.11 µg/mL
IC50 [5, 20]: 7.79 µg/mL
IC50 [7, 20]: 0.743 µg/mL
IC50 [8, 20]: 3.93 µg/mL
IC50 ([9]; Homo sapiens, COLO 201, read-out: 50% Growth inhibitory concentration (IC50) determined by MTT method): 0.979 µg/mL
IC50 ([10]; Homo sapiens, COLO 320DM, read-out: 50% Growth inhibitory concentration (IC50) determined by MTT method): 1.78 µg/mL
IC50 [11, 20]: 0.691 µg/mL
IC50 [14, 20]: 2.75 µg/mL
IC50 [15, 20]: 2.68 µg/mL
IC50 [16, 20]: 4.67 µg/mL
IC50 [18, 20]: 18.9 µg/mL
IC50 [19, 20]: 5.63 µg/mL
SMILES: CCc1c2c(nc3ccc(OC(=O)N4CCC(N5CCCCC5)CC4)cc13)-c1cc3c(c(=O)n1C2)COC(=O)[C@]3(O)CC [Irinotecan, Irinotecan hydrochloride]
IC50 [6, 20]: 5.11 µg/mL
IC50 [12, 20]: 4.26 µg/mL
IC50 [13, 20]: 2.85 µg/mL
IC50 [17, 20]: 4.03 µg/mL

From patent publication US9107918B2, “Method for determining sensitivity to irinotecan and use thereof” (Kabushiki Kaisha Yakult Honsha, priority 2009, dated 2015)
